{
  "source": "patent US20100081702A1",
  "about": "(priority 2007, published 2010)",
  "system": "concanavalin A (ConA)-induced mouse hepatitis models (T cell-dependent liver injury models)",
  "experiment": "concanavalin A (ConA)-induced mouse hepatitis model, AST and ALT in serum",
  "method": "Aspartate aminotransferase (AST) and alanine aminotransferase (ALT) in serum were measured as indices for liver injury in concanavalin A (ConA)-induced mouse hepatitis models used as T cell-dependent liver injury models. The inhibitory effects of compounds of the present invention on liver injury were studied.\nA compound suspension was orally administered at a dose of 1 mg/kg to male BALE/c mice. 24 hours after the oral administration, ConA was intravenously administered at a dose of 20 mg/kg to the tails of the mice. 24 hours after the ConA administration, blood was collected from the mice, and AST and ALT in serum were measured.",
  "data": [
    {"smiles": "COc1ccc(CCCC(=O)c2ccc(CC[C@@](C)(N)CO)n2C)cc1C", "note": "[Compound 1]", "values": [
      {"measurement": "inhibitory effects on ALT level elevating effects", "setting": "result in words, 1 mg/kg oral, ConA-induced mouse hepatitis", "result": "significant inhibitory effects"},
      {"measurement": "AST level (mean ± S.E., IU/L)", "setting": "serum, compound 1 mg/kg oral 24 hours before ConA 20 mg/kg intravenous, blood collected 24 hours after ConA, **P < 0.01, *P < 0.05 vs. solvent (solvent 236.9 ± 52.6, negative control 105.2 ± 26.1)", "result": "97.4 ± 9.1** IU/L"},
      {"measurement": "ALT level (mean ± S.E., IU/L)", "setting": "serum, compound 1 mg/kg oral 24 hours before ConA 20 mg/kg intravenous, blood collected 24 hours after ConA, **P <0.01, *P <0.05 vs. solvent (solvent 454.1 ± 137.8, negative control 76.4 ± 14.2)", "result": "101.6 ± 19.6** IU/L"}
    ]}
  ]
}
